Source: patent publication US10183938B2, “Geminal substituted quinuclidine amide compounds as agonists of α-7 nicotonic acetylcholine receptors” (AXOVANT SCIENCES GMBH, priority 2014, dated 2019)
pKi: −log10 of the molar value. Counter-ions that a name gives are not always drawn. Like-named read-outs stand apart in the source and are kept apart here.

Experiments:
[1] = target: human 5-HT3 serotonin receptors (Homo sapiens (Human), UniProt P46098); assay: [3H]BRL 43694 competition binding
[2] = target: human α7 nAChRs transiently expressed in Xenopus laevis oocytes (Homo sapiens (Human), UniProt P36544); assay: Oocyte electrophysiology screen (TEVC); assay type: cell-based; conditions: 0.01 mM test compound, peak current relative to 0.2 mM ACh
Summary of the method: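 Oocytes expressing human α7 were clamped at −80 mV by TEVC. After a 0.2 mM ACh control pulse, test compound was applied at 0.01 mM for 30 s. Agonist response is peak current as % of the ACh response, in triplicate.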

[3] = CHO cell membranes, [3H]BRL 43694, Cheng Prusoff, read-out: h-5HT3 Ki

human α7 nAChRs transiently expressed in Xenopus laevis oocytes, sequence (P36544 23-502 limits assumed): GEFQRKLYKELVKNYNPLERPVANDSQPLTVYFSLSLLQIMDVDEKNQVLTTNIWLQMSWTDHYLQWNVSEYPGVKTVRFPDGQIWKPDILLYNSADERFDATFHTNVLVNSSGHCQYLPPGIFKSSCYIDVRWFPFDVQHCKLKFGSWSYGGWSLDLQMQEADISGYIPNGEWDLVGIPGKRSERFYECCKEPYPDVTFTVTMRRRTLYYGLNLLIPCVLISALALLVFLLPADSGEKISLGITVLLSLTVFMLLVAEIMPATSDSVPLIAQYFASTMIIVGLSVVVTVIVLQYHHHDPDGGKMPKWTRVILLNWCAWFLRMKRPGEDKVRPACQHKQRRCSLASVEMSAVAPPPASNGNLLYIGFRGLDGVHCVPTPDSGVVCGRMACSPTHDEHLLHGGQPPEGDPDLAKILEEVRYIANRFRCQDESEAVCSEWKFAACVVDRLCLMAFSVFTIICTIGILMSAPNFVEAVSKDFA
human 5-HT3 serotonin receptors, sequence (P46098 24-478): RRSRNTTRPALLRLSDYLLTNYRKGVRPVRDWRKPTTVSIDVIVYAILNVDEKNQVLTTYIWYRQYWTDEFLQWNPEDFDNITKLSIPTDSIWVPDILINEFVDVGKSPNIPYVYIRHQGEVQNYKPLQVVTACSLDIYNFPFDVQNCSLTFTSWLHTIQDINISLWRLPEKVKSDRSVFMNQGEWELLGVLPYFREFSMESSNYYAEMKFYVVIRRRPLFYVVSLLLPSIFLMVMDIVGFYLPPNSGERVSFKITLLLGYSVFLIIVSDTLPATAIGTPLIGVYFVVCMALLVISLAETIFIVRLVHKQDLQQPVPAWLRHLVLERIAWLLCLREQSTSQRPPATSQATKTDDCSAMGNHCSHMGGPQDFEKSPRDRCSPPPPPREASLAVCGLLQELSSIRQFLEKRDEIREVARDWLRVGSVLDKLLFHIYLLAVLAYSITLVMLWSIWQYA

In the case of `CC1(C)[C@H](NC(=O)c2cc3ccc(C4CC4)cc3s2)C2CCN1CC2` [(R)-18, (R)-6-cyclopropyl-N-(2,2-dimethylquinuclidin-3-yl)benzo[b]thiophene-2-carboxamide hydrochloride], the pKi [1, 3] was less than 5.00 and the “% ACh @ 10 μM Oocyte” value [2] was 422 % ACh.
With `CC1(C)[C@H](NC(=O)c2ccc3sccc3c2)C2CCN1CC2` [(R)-30, (R)—N-(2,2-dimethylquinuclidin-3-yl)benzo[b]thiophene-5-carboxamide hydrochloride] the pKi [1, 3] was 5.64 and the “% ACh @ 10 μM Oocyte” value [2] was 396 % ACh.
With `COc1ccc2cc(C(=O)N[C@@H]3C4CCN(CC4)C3(C)C)sc2c1F` [(R)-51, (R)—N-(2,2-dimethylquinuclidin-3-yl)-7-fluoro-6-methoxybenzo[b]thiophene-2-carboxamide hydrochloride] the pKi [1, 3] was less than 5.00 and the “% ACh @ 10 μM Oocyte” value [2] was 326 % ACh.
`CC1(C)[C@H](NC(=O)c2cc3ccoc3cn2)C2CCN1CC2` [(R)-22, (R)—N-(2,2-dimethylquinuclidin-3-yl)furo[2,3-c]pyridine-5-carboxamide hydrochloride] was tested, and the pKi [1, 3] was 5.19 and the “% ACh @ 10 μM Oocyte” value [2] was 456 % ACh.
With `CC1(C)[C@H](NC(=O)c2cc3ccc(C#N)cc3s2)C2CCN1CC2` [(R)-9, (R)-6-cyano-N-(2,2-dimethylquinuclidin-3-yl)benzo[b]thiophene-2-carboxamide hydrochloride] the pKi [1, 3] was less than 5.00 and the “% ACh @ 10 μM Oocyte” value [2] was 2 % ACh.
With `Cc1csc2ccc(C(=O)N[C@@H]3C4CCN(CC4)C34CC4)cc12` [(R)-77, (R)-3-methyl-N-(1′-azaspiro[cyclopropane-1,2′-bicyclo[2.2.2]octan]-3′-yl)benzo[b]thiophene-5-carboxamide hydrochloride] the pKi [1, 3] was 6.18 and the “% ACh @ 10 μM Oocyte” value [2] was 547 % ACh.
With `COc1cccc2cc(C(=O)N[C@@H]3C4CCN(CC4)C3(C)C)sc12` [(R)-116, (R)—N-(2,2-dimethylquinuclidin-3-yl)-7-methoxybenzo[b]thiophene-2-carboxamide hydrochloride] the pKi [1, 3] was 6.22 and the “% ACh @ 10 μM Oocyte” value [2] was 963 % ACh.
`O=C(N[C@@H]1C2CCN(CC2)C12CC2)c1ccc2occ(Cl)c2c1` [(R)-94, (R)-3-chloro-N-(1′-azaspiro[cyclopropane-1,2′-bicyclo[2.2.2]octan]-3′-yl)benzofuran-5-carboxamide hydrochloride] was tested, and the pKi [1, 3] was 5.80 and the “% ACh @ 10 μM Oocyte” value [2] was 812 % ACh.
In the case of `CC1(C)[C@H](NC(=O)c2cnc3occc3c2)C2CCN1CC2` [(R)-36, (R)—N-(2,2-dimethylquinuclidin-3-yl)furo[2,3-b]pyridine-5-carboxamide hydrochloride], the pKi [1, 3] was less than 5.00 and the “% ACh @ 10 μM Oocyte” value [2] was 1 % ACh.
For `CC1(C)[C@H](NC(=O)c2cc3cc(Cl)ccc3s2)C2CCN1CC2` [(R)-13, (R)-5-chloro-N-(2,2-dimethylquinuclidin-3-yl)benzo[b]thiophene-2-carboxamide hydrochloride], the pKi [1, 3] was 5.68 and the “% ACh @ 10 μM Oocyte” value [2] was 132 % ACh.
`Cc1nc2cc(C(=O)N[C@@H]3C4CCN(CC4)C34CC4)ccc2o1` [(R)-85, (R)-2-methyl-N-(1′-azaspiro[cyclopropane-1,2′-bicyclo[2.2.2]octan]-3′-yl)benzo[d]oxazole-5-carboxamide] was tested, and the pKi [1, 3] was less than 5.00 and the “% ACh @ 10 μM Oocyte” value [2] was 188 % ACh.
For `Cc1ccc2cc(C(=O)N[C@@H]3C4CCN(CC4)C3(C)C)sc2c1Cl` [(R)-52, (R)-7-chloro-N-(2,2-dimethylquinuclidin-3-yl)-6-methylbenzo[b]thiophene-2-carboxamide hydrochloride], the pKi [1, 3] was 6.19 and the “% ACh @ 10 μM Oocyte” value [2] was 844 % ACh.
In the case of `CC1(C)[C@H](NC(=O)c2cc3ccc(S(C)(=O)=O)cc3s2)C2CCN1CC2` [(R)-48, (R)—N-(2,2-dimethylquinuclidin-3-yl)-6-(methylsulfonyl)benzo[b]thiophene-2-carboxamide hydrochloride], the pKi [1, 3] was less than 5.00 and the “% ACh @ 10 μM Oocyte” value [2] was 0 % ACh.
With `O=C(N[C@@H]1C2CCN(CC2)C12CC2)c1cc2ccc(Br)cc2s1` [(R)-101, (R)-6-bromo-N-(1′-azaspiro[cyclopropane-1,2′-bicyclo[2.2.2]octan]-3′-yl)benzo[b]thiophene-2-carboxamide hydrochloride] the pKi [1, 3] was less than 5.00 and the “% ACh @ 10 μM Oocyte” value [2] was 412 % ACh.
In the case of `COc1ccc2cc(C(=O)N[C@@H]3C4CCN(CC4)C3(C)C)sc2c1` [(R)-20, (R)—N-(2,2-dimethylquinuclidin-3-yl)-6-methoxybenzo[b]thiophene-2-carboxamide hydrochloride], the pKi [1, 3] was less than 5.00 and the “% ACh @ 10 μM Oocyte” value [2] was 558 % ACh.
`CC1(C)[C@H](NC(=O)c2cc3cccc(C(F)(F)F)c3s2)C2CCN1CC2` [(R)-7, (R)—N-(2,2-dimethylquinuclidin-3-yl)-7-(trifluoromethyl)benzo[b]thiophene-2-carboxamide hydrochloride] was tested, and the pKi [1, 3] was 5.47 and the “% ACh @ 10 μM Oocyte” value [2] was 466 % ACh.
With `O=C(N[C@@H]1C2CCN(CC2)C12CC2)c1ccc2occc2c1` [(R)-59, (R)—N-(1′-azaspiro[cyclopropane-1,2′-bicyclo[2.2.2]octan]-3′-yl)benzofuran-5-carboxamide hydrochloride] the pKi [1, 3] was 5.17 and the “% ACh @ 10 μM Oocyte” value [2] was 374 % ACh.
For `CC1(C)[C@H](NC(=O)c2cc3ccc(Br)cc3s2)C2CCN1CC2` [(R)-46, (R)-6-bromo-N-(2,2-dimethylquinuclidin-3-yl)benzo[b]thiophene-2-carboxamide hydrochloride], the pKi [1, 3] was less than 5.00 and the “% ACh @ 10 μM Oocyte” value [2] was 301 % ACh.
`CC1(C)[C@H](NC(=O)c2cc3ccc(F)cc3s2)C2CCN1CC2` [(R)-8, (R)—N-(2,2-dimethylquinuclidin-3-yl)-6-fluorobenzo[b]thiophene-2-carboxamide hydrochloride] was tested, and the pKi [1, 3] was 5.19 and the “% ACh @ 10 μM Oocyte” value [2] was 480 % ACh.
`CC1(C)[C@H](NC(=O)c2cc3cccc(Cl)c3s2)C2CCN1CC2` [(R)-3, (R)-7-chloro-N-(2,2-dimethylquinuclidin-3-yl)benzo[b]thiophene-2-carboxamide hydrochloride] was tested, and the pKi [1, 3] was 6.57 and the “% ACh @ 10 μM Oocyte” value [2] was 304 % ACh.
For `O=C(N[C@@H]1C2CCN(CC2)C12CC2)c1ccc2c(c1)OCCO2` [(R)-107, (R)—N-(1′-azaspiro[cyclopropane-1,2′-bicyclo[2.2.2]octan]-3′-yl)-2,3-dihydrobenzo[b][1,4]dioxine-6-carboxamide hydrochloride], the pKi [1, 3] was less than 5.00 and the “% ACh @ 10 μM Oocyte” value [2] was 414 % ACh.
For `CC1(C)[C@H](NC(=O)c2cc3cccc(Cl)c3o2)C2CCN1CC2.Cl` [(R)-217, (R)-7-chloro-N-(2,2-dimethylquinuclidin-3-yl)benzofuran-2-carboxamide hydrochloride], the pKi [1, 3] was 5.96 and the “% ACh @ 10 μM Oocyte” value [2] was 473 % ACh.
`CC1(C)[C@H](NC(=O)c2ccc3occc3c2)C2CCN1CC2` [(R)-6, (R)—N-(2,2-dimethylquinuclidin-3-yl)benzofuran-5-carboxamide hydrochloride] was tested, and the pKi [1, 3] was less than 5.00 and the “% ACh @ 10 μM Oocyte” value [2] was 374 % ACh.
In the case of `COc1ccc2cc(C(=O)N[C@@H]3C4CCN(CC4)C34CC4)sc2c1F` [(R)-155, (R)-7-fluoro-6-methoxy-N-(1′-azaspiro[cyclopropane-1,2′-bicyclo[2.2.2]octan]-3′-yl)benzo[b]thiophene-2-carboxamide hydrochloride], the pKi [1, 3] was less than 5.00 and the “% ACh @ 10 μM Oocyte” value [2] was 513 % ACh.
`O=C(N[C@@H]1C2CCN(CC2)C12CC2)c1cc2ccc(C3CC3)c(F)c2s1` [(R)-159, (R)-6-cyclopropyl-7-fluoro-N-(1′-azaspiro[cyclopropane-1,2′-bicyclo[2.2.2]octan]-3′-yl)benzo[b]thiophene-2-carboxamide hydrochloride] was tested, and the pKi [1, 3] was less than 5.00 and the “% ACh @ 10 μM Oocyte” value [2] was 24 % ACh.
In the case of `O=C(NC1C2CCN(CC2)C12CC2)c1ccc2occc2c1` (single isomer, unassigned; enantiomer1) [59a, N-(1′-azaspiro[cyclopropane-1,2′-bicyclo[2.2.2]octan]-3′-yl)benzofuran-5-carboxamide-enantiomer1], the pKi [1] was 5.19 and the “% ACh @ 10 μM Oocyte” value [2] was 823 % ACh.
In the case of `CC1(C)[C@H](NC(=O)c2cc3ccc(Cl)c(F)c3s2)C2CCN1CC2` [(R)-110, (R)-6-chloro-N-(2,2-dimethylquinuclidin-3-yl)-7-fluorobenzo[b]thiophene-2-carboxamide hydrochloride], the pKi [1, 3] was less than 5.00 and the “% ACh @ 10 μM Oocyte” value [2] was 444 % ACh.
`O=C(N[C@@H]1C2CCN(CC2)C12CC2)c1cc2ccc(N3CCOCC3)cc2s1` [(R)-99, (R)-6-morpholino-N-(1′-azaspiro[cyclopropane-1,2′-bicyclo[2.2.2]octan]-3′-yl)benzo[b]thiophene-2-carboxamide hydrochloride] was tested, and the pKi [1, 3] was less than 5.00 and the “% ACh @ 10 μM Oocyte” value [2] was 1 % ACh.
In the case of `O=C(N[C@@H]1C2CCN(CC2)C12CC2)c1cc2ccc(Cl)c(Cl)c2s1` [(R)-150, (R)-6,7-dichloro-N-(1′-azaspiro[cyclopropane-1,2′-bicyclo[2.2.2]octan]-3′-yl)benzo[b]thiophene-2-carboxamide hydrochloride], the pKi [1, 3] was 5.66 and the “% ACh @ 10 μM Oocyte” value [2] was 443 % ACh.
In the case of `O=C(N[C@@H]1C2CCN(CC2)C12CC2)c1cc2ccoc2cn1` [(R)-75, (R)—N-(1′-azaspiro[cyclopropane-1,2′-bicyclo[2.2.2]octan]-3′-yl)furo[2,3-c]pyridine-5-carboxamide hydrochloride], the pKi [1, 3] was 5.48 and the “% ACh @ 10 μM Oocyte” value [2] was 594 % ACh.
`CC1(C)[C@H](NC(=O)c2cc3cccc(F)c3s2)C2CCN1CC2` [(R)-4, (R)—N-(2,2-dimethylquinuclidin-3-yl)-7-fluoro-benzo[b]thiophene-2-carboxamide hydrochloride] was tested, and the pKi [1, 3] was 6.06 and the “% ACh @ 10 μM Oocyte” value [2] was 1060 % ACh.
`CC1(C)[C@H](NC(=O)c2cc3cc(C(F)(F)F)ccc3s2)C2CCN1CC2` [(R)-17, (R)—N-(2,2-dimethylquinuclidin-3-yl)-5-(trifluoromethyl)benzo[b]thiophene-2-carboxamide hydrochloride] was tested, and the pKi [1, 3] was less than 5.00 and the “% ACh @ 10 μM Oocyte” value [2] was 0 % ACh.
